# According to US11470846B2, “Herbicidal pyridino-/pyrimidino-thiazoles” (SYNGENTA PARTICIPATIONS AG, priority 2014, dated 2022):
# How the values were obtained:
# Format in all cases: in vivo
# [1] = test system: Alopecurus myosuroides (ALOMY); assay: Pre-emergence herbicidal activity; conditions: pre-emergence application, 1000 g/Ha, evaluated after 13 days, scale 0-5
# Procedure: (§1) B1 Pre-Emergence Herbicidal Activity
# (§2) Seeds of a variety of test species were sown in standard soil in pots: Triticum aestivium (TRZAW), Oryza sativa (ORYSA), Avena fatua (AVEFA), Alopecurus myosuroides (ALOMY), Echinochloa crus-galli (ECHCG), Lolium perenne (LOLPE), Zea Mays (ZEAMX), Abutilon theophrasti (ABUTH), Amaranthus retroflexus (AMARE) and Setaria faberi (SETFA). After cultivation for one day (pre-emergence) under controlled conditions in a glasshouse (at 24/16° C., day/night; 14 hours light; 65% humidity), the plants were sprayed with an aqueous spray solution derived from the formulation of the technical active ingredient in acetone/water (50:50) solution containing 0.5% Tween 20 (polyoxyethelyene sorbitan monolaurate, CAS RN 9005-64-5). The test plants were then grown in a glasshouse under controlled conditions (at 24/16° C., day/night; 14 hours light; 65% humidity) and watered twice daily. After 13 days, the test was evaluated (5=total damage to plant; 0=no damage to plant).
# [2] = test system: Avena fatua (AVEFA); assay: Pre-emergence herbicidal activity; conditions: pre-emergence application, 1000 g/Ha, evaluated after 13 days, scale 0-5
# Procedure: as §1, §2
# [3] = test system: Echinochloa crus-galli (ECHCG); assay: Pre-emergence herbicidal activity; conditions: pre-emergence application, 1000 g/Ha, evaluated after 13 days, scale 0-5; Table 5
# Procedure: as §1, §2
# [4] = test system: Lolium perenne (LOLPE); assay: Pre-emergence herbicidal activity; conditions: pre-emergence application, 1000 g/Ha, evaluated after 13 days, scale 0-5; Table 5
# Procedure: as §1, §2
# [5] = test system: Oryza sativa (ORYSA); assay: Pre-emergence herbicidal activity; conditions: pre-emergence application, 1000 g/Ha, evaluated after 13 days, scale 0-5
# Procedure: as §1, §2
# [6] = test system: Triticum aestivium (TRZAW); assay: Pre-emergence herbicidal activity; conditions: pre-emergence application, 1000 g/Ha, evaluated after 13 days, scale 0-5
# Procedure: as §1, §2
# [7] = test system: Alopecurus myosuroides (ALOMY); assay: Post-emergence herbicidal activity; conditions: post-emergence application, 1000 g/Ha, evaluated after 13 days, scale 0-5
# Procedure: (§3) B2 Post-Emergence Herbicidal Activity
# (§4) Seeds of a variety of test species were sown in standard soil in pots: Triticum aestivium (TRZAW), Oryza sativa (ORYSA), Avena fatua (AVEFA), Alopecurus myosuroides (ALOMY), Echinochloa crus-galli (ECHCG), Lolium perenne (LOLPE), Zea Mays (ZEAMX), Abutilon theophrasti (ABUTH), Amaranthus retroflexus (AMARE) and Setaria faberi (SETFA). After 8 days cultivation (post-emergence) under controlled conditions in a glasshouse (at 24/16° C., day/night; 14 hours light; 65% humidity), the plants were sprayed with an aqueous spray solution derived from the formulation of the technical active ingredient in acetone/water (50:50) solution containing 0.5% Tween 20 (polyoxyethelyene sorbitan monolaurate, CAS RN 9005-64-5). The test plants were then grown in a glasshouse under controlled conditions (at 24/16° C., day/night; 14 hours light; 65% humidity) and watered twice daily. After 13 days, the test was evaluated (5=total damage to plant; 0=no damage to plant).
# [8] = test system: Avena fatua (AVEFA); assay: Post-emergence herbicidal activity; conditions: post-emergence application, 1000 g/Ha, evaluated after 13 days, scale 0-5
# Procedure: as §3, §4
# [9] = test system: Echinochloa crus-galli (ECHCG); assay: Post-emergence herbicidal activity; conditions: post-emergence application, 1000 g/Ha, evaluated after 13 days, scale 0-5; Table 7
# Procedure: as §3, §4
# [10] = test system: Lolium perenne (LOLPE); assay: Post-emergence herbicidal activity; conditions: post-emergence application, 1000 g/Ha, evaluated after 13 days, scale 0-5; Table 7
# Procedure: as §3, §4
# [11] = test system: Oryza sativa (ORYSA); assay: Post-emergence herbicidal activity; conditions: post-emergence application, 1000 g/Ha, evaluated after 13 days, scale 0-5
# Procedure: as §3, §4
# [12] = test system: Triticum aestivium (TRZAW); assay: Post-emergence herbicidal activity; conditions: post-emergence application, 1000 g/Ha, evaluated after 13 days, scale 0-5
# Procedure: as §3, §4
Structure (SMILES),"Control of weed species, ALOMY (damage score) [1]","Control of weed species, AVEFA (damage score) [2]","Control of weed species, ECHCG (damage score) [3]","Control of weed species, LOLPE (damage score) [4]","Control of weed species, ORYSA (damage score) [5]","Control of weed species, TRZAW (damage score) [6]","Control of weed species, ALOMY (damage score) [7]","Control of weed species, AVEFA (damage score) [8]","Control of weed species, ECHCG (damage score) [9]","Control of weed species, LOLPE (damage score) [10]","Control of weed species, ORYSA (damage score) [11]","Control of weed species, TRZAW (damage score) [12]"
Cc1nc(-c2cncc(C=O)c2)sc1N(C)C(=O)OC(C)(C)C [Compound A5],0,0,0,0,0,0,0,0,0,0,0,0
COc1cncc(-c2nc(C)c(N(C)C(=O)OC(C)(C)C)s2)c1 [Compound A6],1,0,2,1,1,0,1,2,4,2,0,1
Cc1nc(-c2cncc(C#N)c2)sc1N(C)C(=O)OC(C)(C)C [Compound A7],1,4,2,2,1,1,1,4,5,3,1,2
Cc1nc(-c2cncc(C(N)=O)c2)sc1N(C)C(=O)OC(C)(C)C [Compound A8],0,0,0,0,0,0,1,2,3,0,1,2
Cc1nc(-c2cncc(S(C)(=O)=O)c2)sc1N(C)C(=O)OC(C)(C)C [Compound A9],0,0,0,0,0,0,1,2,2,1,1,2
Cc1nc(-c2cncc(C(F)(F)F)c2)sc1N(C)C(=O)OC(C)(C)C [Compound A10],0,1,1,1,1,1,0,2,4,0,1,1
